The values below come from patent US20250263376A1, “(E)-N-CINNAMOYLAMINOALKANOLS WITH MELANOGENESIS INHIBITORY ACTIVITY” (Uniwersytet Jagiellonski, priority 2024, published 2025).

Series [1] addresses T1, tyrosinase released from B16-F10 cells (Mus musculus, UniProt P11344).
T1 construct: endogenous in cells; host or cells: B16-F10 murine melanoma cells (alpha-MSH stimulated), Triton X-100 lysate
The series can be described thus: Inhibition of tyrosinase activity released from B16-F10 cells. It counts as cell-based, murine. The conditions noted are these: 24 h incubation, α-MSH, L-DOPA 0.5 mM. As for the experimental part: Inhibition of Tyrosinase Activity Released from B16-F10 Cells
50,000 cells were placed in each well of a 24-well plate (in F10-Ham medium, 1% FBS). After 24 h of culture, the tested compounds were added in fresh medium (DMEM, 1% FBS), with an additional 5 μM of a-melanocorticotropic hormone (a-MSH) in the medium to induce melanogenesis. Three wells on the plate constituted a control sample without the melanogenesis inducer (a-MSH) and without the tested compounds. After 24 hours of incubation under these conditions, the medium was removed and the cells were washed twice with PBS. 100 μL of lysis buffer composed of 90 μL of 50 mM potassium phosphate buffer, 5 μL of 0.1 mM phenylmethylsulfonyl fluoride and 5 μL of 1% Triton X-100 were added to the wells. The plates were placed at −80° C. for 30 minutes. Cell lysates were then centrifuged for 30 min (4° C., 12,000 rpm), and then 80 μL of the supernatant was transferred to 96-well plates. […] After a 30-minute incubation, the absorbance was measured at 475 nm using a microplate reader. The percentage of inhibition of tyrosinase activity was calculated using the formula: [(AC−AT)/Ac]×100, where AC—is the absorbance of the negative control (from wells in which cells were cultured without the tested compounds), AT—is the absorbance of the sample from wells in which cells were cultured in the presence of the test compound.

Series [2] deals with human reconstructed epidermis Episkin. The series can be described thus: Skin permeation studies in reconstructed human epidermis Episkin. It counts as in vitro ADME. The protocol:
The tested substance A-111 in a macrogol formulation (2% A-111 in the PEG400+PEG800 base) was applied onto the epidermis in an amount of approximately 10 mg/cm^2 (“finite dose application”) using a sterile inoculation loop. The amount applied was weighed accurately. As a control, a macrogol formulation without the test substance was applied onto the epidermis. The finished experimental plate was incubated at 32° C. At specific time intervals, aliquots of the receptor fluid (0.5 mL) were collected for the analysis and replaced with 0.5 mL of fresh receptor fluid. After 24 h of culture, all of the receptor fluid was collected. The examined tissue was washed with cotton buds soaked in methanol. The donor and receptor compartments were washed with methanol, and the epidermis was separated from the inserts and transferred to methanol. Samples were stored at −20° C. until analysis. The content (concentration) of the tested substance A-111 in the receptor fluid and in individual compartments: on the surface of the epidermis, in the epidermis, in the receptor fluid was determined using measurements in a microplate reader at 281 nm on 96-well plates transmitting ultraviolet radiation.
In order to confirm proper bioavailability, studies of the permeation of compound A-111 from a solution in PEG400 were performed in a model of reconstructed human epidermis. […] The tested substance A-111 was applied onto the epidermis in the form of a 2% PEG400 solution in an amount of 15 μL. The finished experimental plate was incubated at 32° C. At specific time intervals, aliquots of the receptor fluid (0.5 mL) were collected for the analysis and replaced with fresh fluid. After 24 h of culture, all of the receptor fluid was collected. The examined tissue was washed with cotton buds soaked in methanol. The donor and receptor compartments were washed with methanol, and the epidermis was separated from the inserts and transferred to methanol. The content (concentration) of the tested substance A-111 in the acceptor fluid and in individual compartments: on the surface of the epidermis, in the epidermis, in the receptor fluid was determined using measurements in a microplate reader at 281 nm on 96-well plates transmitting ultraviolet radiation.
Permeation studies of the A-111 compound from a cosmetic formulation were performed in a model of reconstructed human epidermis. […] 25 μL of the formulation containing the tested compound A-111 was applied to the epidermis. […] The content (concentration) of the tested substance A-111 in the receptor fluid and in individual compartments: on the surface of the epidermis, in the epidermis, in the receptor fluid was determined using measurements in a microplate reader at 281 nm on 96-well plates transmitting ultraviolet radiation.

The subject of series [3] is Balb/c 3T3 murine fibroblast cell line. The series can be described thus: Phototoxicity, neutral red uptake in Balb/c 3T3 fibroblasts. Particulars: for PIF (photoirritation factor): ratio of IC50 of unirradiated to irradiated cells; for cytotoxicity towards mouse fibroblasts: with and without UVA exposure. The protocol: d) Phototoxicity Assessment Using the Balb/c 3T3 Murine Fibroblast Cell Line
Balb/c 3T3 cells, which are an immortalized murine fibroblast cell line, were purchased at ATTC and cultured in the medium recommended by the manufacturer (DMEM GlutaMAX, newborn calf serum (BCS), antibiotics). After multiplication, cells were placed in 96-well plates, which were incubated for 24 hours, after which all wells of the plates were washed with 150 μL of balanced salt solution (HBSS). Then, after drying the plates, 100 μL of a solution of the tested compounds in HBSS with 2% FBS was added to each well and incubated for an hour. After this time, some of the plates were irradiated using the Suntest CPS+sunlight simulator from Atlas with appropriate filters cutting off radiation with a wavelength <320 nm (UVA radiation intensity 5 J/cm^2). The second part of the plates was placed in radiation-free conditions for the same period of time. After the exposure time, the liquid was removed from all plates and the wells were washed twice with 150 μL of HBSS, then supplemented with fresh culture medium and incubated for 24 hours in an incubator (37° C., 5% CO2). Viability was assessed in the neutral red uptake test, which is based on the ability of the dye to penetrate only into living cells. Dye uptake was confirmed by absorbance measurement at 540 nm. […] The appropriate coefficients were also calculated: mean phototoxic effect (MPE) and photoirritation factor (PIF). PIF is the ratio of the IC50 values of unirradiated to irradiated cells, while MPE is based on the comparison of concentration-response curves.

T1 sequence (P11344 19-533): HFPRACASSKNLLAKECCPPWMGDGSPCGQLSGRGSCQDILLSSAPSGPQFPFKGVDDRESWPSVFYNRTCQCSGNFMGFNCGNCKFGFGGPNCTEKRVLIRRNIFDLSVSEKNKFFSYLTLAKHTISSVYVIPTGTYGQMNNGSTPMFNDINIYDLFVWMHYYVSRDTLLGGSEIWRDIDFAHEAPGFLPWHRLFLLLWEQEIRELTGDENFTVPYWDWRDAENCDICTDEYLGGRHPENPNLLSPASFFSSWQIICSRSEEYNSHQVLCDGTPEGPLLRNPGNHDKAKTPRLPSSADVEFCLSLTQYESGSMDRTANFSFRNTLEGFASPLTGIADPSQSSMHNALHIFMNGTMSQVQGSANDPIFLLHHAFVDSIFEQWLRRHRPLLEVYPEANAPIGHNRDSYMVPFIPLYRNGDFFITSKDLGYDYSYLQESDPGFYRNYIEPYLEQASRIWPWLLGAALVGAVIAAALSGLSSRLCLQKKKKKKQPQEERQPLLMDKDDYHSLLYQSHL

`O=C(/C=C/c1ccc(Cl)cc1)NCCCCCO` [Compound A-111, (2E)-3-(4-chlorophenyl)-N-(5-hydroxypentyl)prop-2-enamide]: the “inhibition of tyrosinase released from B16-F10 cells” value in series [1] is reported as “inhibit the activity of tyrosinase released from B16-F10 cells”. The epidermal permeation entry in series [2] (2% A-111 in macrogol formulation (PEG400+PEG800), about 10 mg/cm^2, 24 h) was “crosses the epidermal barrier”. In series [2] (2% A-111 in macrogol formulation, 24 h), the “accumulation in the epidermis” value is listed as “no accumulation”. Further, in series [2] (2% PEG400 solution, 15 μL, 24 h), the epidermal permeation result was “crosses the epidermal barrier”. The epidermal permeation result in series [2] (released from cosmetic formulation, 25 μL, 24 h) is “crosses the epidermal barrier”. Further, in series [3], the phototoxic potential entry is “do not have phototoxic potential”, the “PIF (photoirritation factor)” value is reported as “No phototoxicity” and the “cytotoxicity towards mouse fibroblasts” value was “devoid of cytotoxicity”.
In the case of `O=C(/C=C/c1ccccc1)NCCCCCO` [Compound A-133, (2E)-N-(5-hydroxypentyl)-3-phenylprop-2-enamide], in series [3], the phototoxic potential result is on record as “do not have phototoxic potential”, the “PIF (photoirritation factor)” value is “No phototoxicity” and the “cytotoxicity towards mouse fibroblasts” value is “devoid of cytotoxicity”.
